Assay results published in patent publication US7750017B2, “Heterocycles” (Bayer Schering Pharma Aktiengesellschaft, priority 2004, dated 2010).
Counter-ions that a name gives are not always drawn.

What was measured:
[1] = system: BT474 [human breast carcinoma, overexpressing HER2 (ErbB2)]; test: In vitro tumor cell proliferation assay (Cell Titer-Glo luminescent cell viability), BT474 cells; format: cell-based; conditions: BT-474, 72 h, 72 hours of drug exposure, Cell Titer-Glo readout, read-out: IC50, anti-proliferative activity in BT474 cells
From the text: (§1) The utility of the compounds of the present invention can be illustrated, for example, by their activity in vitro in the in vitro tumor cell proliferation assay described below. The link between activity in tumor cell proliferation assays in vitro and anti-tumor activity in the clinical setting has been very well established in the art.
(§2) The following assay is one of the methods by which compound activity relating to treatment of the disorders identified herein can be determined.
(§3) The tumor cell proliferation assay used to test the compounds of the present invention involves a readout called Cell Titer-Glow® Luminescent Cell Viability Assay developed by Promega® (Cunningham, B A “A Growing Issue: Cell Proliferation Assays, Modern kits ease quantification of cell growth” The Scientist 2001, 15(13), 26, and Crouch, S P et al., “The use of ATP bioluminescence as a measure of cell proliferation and cytotoxicity” Journal of Immunological Methods 1993, 160, 81-88), that measures inhibition of cell proliferation. Generation of a luminescent signal corresponds to the amount of ATP present, which is directly proportional to the number of metabolically active (proliferating) cells.
(§4) A431 cells [human epidermoid carcinoma, ATCC # […], overexpressing HER1 (EGFR, ErbB1)] and BT474 [human breast carcinoma, ATCC # CRL-1555, overexpressing HER2 (ErbB2)] were plated at a density of 2.5×10^3 cells/well in 96 well black-clear bottom tissue culture plates in RPMI media with 10% Fetal Bovine Serum and incubated at 37° C. Twenty-four hours later, test compounds are added at a final concentration range from as high 100 μm to as low 64 pM depend on the activities of the tested compounds in serial dilutions at a final DMSO concentration of 0.1%. Cells were incubated for 72 hours at 37° C. in complete growth media after addition of the test compound. After 72 hours of drug exposure, the plates were equilibrated to room temperature for approximately 30 min. Then, using a Promega Cell Titer Glo Luminescent® assay kit, lysis buffer containing 100 microliters of the enzyme luciferase and its substrate, luciferin mixture, was added to each well. The plates were mixed for 2 min on orbital shaker to ensure cell lysis and incubated for 10 min at room temperature to stabilize luminescence signal. The samples were read on VICTOR 2 using Luminescence protocol, and analyzed with Analyze5 software to generate IC50 values.

[2] = system: A431 cells [human epidermoid carcinoma, overexpressing HER1 (EGFR, ErbB1)]; test: In vitro tumor cell proliferation assay (Cell Titer-Glo luminescent cell viability), A431 cells; format: cell-based; conditions: A-431, 72 h, 72 hours of drug exposure, Cell Titer-Glo readout, read-out: IC50, anti-proliferative activity in A431 cells
From the text: as §1, §2, §3, §4

Row | IC50 [1] [µM] | IC50 [2] [µM] | Structure (SMILES)
1 | ≤ 0.5 | ≤ 5 | OCC(O)c1ccc2c(c1)sc1ncnc(Nc3ccc(OCc4cccc(F)c4)c(Cl)c3)c12 (racemic) [Example 25, 1-[4-({3-chloro-4-[(3-fluorobenzyl)oxy]phenyl}amino) [1]benzothieno[2,3-d]pyrimidin-7-yl]ethane-1,2-diol]
2 | ≤ 0.5 | ≤ 5 | OCC(O)c1ccc2c(c1)sc1ncnc(Nc3ccc(OCc4ccccn4)c(Cl)c3)c12 (racemic) [Example 73, 1-(4-{[3-chloro-4-(pyridin-2-ylmethoxy)phenyl]amino}[1]benzothieno[2,3-d]pyrimidin-7-yl)ethane-1,2-diol]
3 | ≤ 5 | ≤ 50 | CCOC(=O)Cc1ccc2c(c1)sc1ncnc(Nc3ccc(OCc4cccc(F)c4)c(Cl)c3)c12 [Example 1, ethyl[4-({3-chloro-4-[(3-fluorobenzyl)oxy]phenyl}amino)[1]benzothieno[2,3-d]pyrimidin-7-yl]acetate]
4 | ≤ 5 | ≤ 5 | OCCc1ccc2c(c1)sc1ncnc(Nc3ccc(OCc4cccc(F)c4)c(Cl)c3)c12 [Example 2, 2-[4-({3-chloro-4-[(3-fluorobenzyl)oxy]phenyl}amino)[1]benzothieno[2,3-d]pyrimidin-7-yl]ethanol]
5 | ≤ 0.5 | ≤ 5 | Fc1cccc(COc2ccc(Nc3ncnc4sc5cc(CCBr)ccc5c34)cc2Cl)c1 [Example 3, 7-(2-bromoethyl)-N-{3-chloro-4-[(3-fluorobenzyl)oxy]phenyl}[1]benzothieno[2,3-d]pyrimidin-4-amine]
6 | ≤ 0.5 | ≤ 50 | CS(=O)(=O)CCNCCc1ccc2c(c1)sc1ncnc(Nc3ccc(OCc4cccc(F)c4)c(Cl)c3)c12 [Example 4, N-{3-chloro-4-[(3-fluorobenzyl)oxy]phenyl}-7-(2-{[2-(methylsulfonyl)ethyl]amino}ethyl)[1]benzothieno[2,3-d] pyrimidin-4-amine]
7 | ≤ 0.5 | ≤ 5 | COC[C@H]1CCCN1CCc1ccc2c(c1)sc1ncnc(Nc3ccc(OCc4cccc(F)c4)c(Cl)c3)c12 [Example 5, N-{3-chloro-4-[(3-fluorobenzyl)oxy]phenyl}-7-{2-[2-(methoxymethyl)pyrrolidin-1-yl]ethyl}[1]benzothieno[2,3-d] pyrimidin-4-amine]
8 | ≤ 0.5 | ≤ 5 | COCCN(CCOC)CCc1ccc2c(c1)sc1ncnc(Nc3ccc(OCc4cccc(F)c4)c(Cl)c3)c12 [Example 6, 7-{2-[bis(2-methoxyethyl)amino]ethyl}-N-{3-chloro-4-[(3-fluorobenzyl)oxy]phenyl}[1] benzothieno[2,3-d]pyrimidin-4-amine]
9 | ≤ 5 | ≤ 50 | Fc1cccc(COc2ccc(Nc3ncnc4sc5cc(CCn6ccnc6)ccc5c34)cc2Cl)c1 [Example 7, [3-chloro-4-(3-fluoro-benzyloxy)-phenyl]-[7-(2-imidazol-1-yl-ethyl)-benzo[4,5]thieno[2,3-d]pyrimidin-4-yl]-amine]
10 | ≤ 0.5 | ≤ 5 | OCCN(CCO)CCc1ccc2c(c1)sc1ncnc(Nc3ccc(OCc4cccc(F)c4)c(Cl)c3)c12 [Example 8, 2,2'-({2-[4-({3-chloro-4-[(3-fluorobenzyl)oxy]phenyl}amino)[1]benzothieno[2,3-d]pyrimidin-7-yl]ethyl}imino)diethanol]
11 | ≤ 0.5 | ≤ 5 | COCCNCCc1ccc2c(c1)sc1ncnc(Nc3ccc(OCc4cccc(F)c4)c(Cl)c3)c12 [Example 9, N-{3-chloro-4-[(3-fluorobenzyl)oxy]phenyl}-7-{2-[(2-methoxyethyl)amino]ethyl}[1] benzothieno[2,3-d]pyrimidin-4-amine]
12 | ≤ 0.5 | ≤ 50 | Fc1cccc(COc2ccc(Nc3ncnc4sc5cc(CCN6CCOCC6)ccc5c34)cc2Cl)c1 [Example 10, N-{3-chloro-4-[(3-fluorobenzyl)oxy]phenyl}-7-(2-morpholin-4-ylethyl)[1] benzothieno[2,3-d]pyrimidin-4-amine]
13 | ≤ 0.5 | ≤ 5 | Fc1cccc(COc2ccc(Nc3ncnc4sc5cc(CCN6CCCC6)ccc5c34)cc2Cl)c1 [Example 11, N-{3-chloro-4-[(3-fluorobenzyl)oxy]phenyl}-7-(2-pyrrolidin-1-ylethyl)[1] benzothieno[2,3-d]pyrimidin-4-amine]
14 | ≤ 0.5 | ≤ 5 | COCCN1CCN(CCc2ccc3c(c2)sc2ncnc(Nc4ccc(OCc5cccc(F)c5)c(Cl)c4)c23)CC1 [Example 12, N-{3-chloro-4-[(3-fluorobenzyl)oxy]phenyl}-7-{2-[4-(2-methoxyethyl)piperazin-1-yl]ethyl}[1]benzothieno [2,3-d]pyrimidin-4-amine]
15 | ≤ 5 | ≤ 50 | Fc1cccc(COc2ccc(Nc3ncnc4sc5cc(Br)ccc5c34)cc2Cl)c1 [Example 13, 7-bromo-N-{3-chloro-4-[(3-fluorobenzyl)oxy]phenyl}[1]benzothieno[2,3-d]pyrimidin-4-amine]
16 | ≤ 0.5 | ≤ 50 | C=Cc1ccc2c(c1)sc1ncnc(Nc3ccc(OCc4cccc(F)c4)c(Cl)c3)c12 [Example 14, N-{3-chloro-4-[(3-fluorobenzyl)oxy]phenyl}-7-vinyl[1]benzothieno[2,3-d]pyrimidin-4-amine]
17 | ≤ 0.5 | ≤ 5 | Fc1cccc(COc2ccc(Nc3ncnc4sc5cc(CCN6CCSCC6)ccc5c34)cc2Cl)c1 [Example 15, N-{3-chloro-4-[(3-fluorobenzyl)oxy]phenyl}-7-(2-thiomorpholin-4-ylethyl)[1] benzothieno[2,3-d]pyrimidin-4-amine]
18 | ≤ 0.5 | ≤ 50 | Fc1cccc(COc2ccc(Nc3ncnc4sc5cc(CCNCCN6CCOCC6)ccc5c34)cc2Cl)c1 [Example 16, N-{3-chloro-4-[(3-fluorobenzyl)oxy]phenyl}-7-{2-[(2-morpholin-4-ylethyl)amino]ethyl}[1] benzothieno[2,3-d]pyrimidin-4-amine]
19 |  | ≤ 5 | OC[C@@H](O)COc1ccc2c(c1)sc1ncnc(Nc3ccc(OCc4cccc(F)c4)c(Cl)c3)c12 [Example 35, (2R)-3-{[4-({3-chloro-4-[(3-fluorobenzyl)oxy]phenyl}amino)[1]benzothieno[2,3-d]pyrimidin-7-yl]oxy}propane-1,2-diol]
20 |  | ≤ 50 | CS(=O)(=O)CCNC(=O)/C=C/c1ccc2c(c1)sc1ncnc(Nc3ccc(OCc4cccc(F)c4)c(Cl)c3)c12 [Example 53, (2E)-3-[4-({3-chloro-4-[(3-fluorobenzyl)oxy]phenyl}amino) [1]benzothieno[2,3-d]pyrimidin-7-yl]-N-[2-(methylsulfonyl)ethyl]acrylamide]
21 |  | ≤ 5 | O=C(/C=C/c1ccc2c(c1)sc1ncnc(Nc3ccc(OCc4cccc(F)c4)c(Cl)c3)c12)N1CCOCC1 [Example 55, N-{3-chloro-4-[(3-fluorobenzyl)oxy]phenyl}-7-[(1E)-3-morpholin-4-yl-3-oxoprop-1-en-1-yl][1]benzothieno[2,3-d] pyrimidin-4-amine trifluoroacetate]
22 | ≤ 0.5 |  | CN1CCN(CCc2ccc3c(c2)sc2ncnc(Nc4ccc(OCc5ccccn5)c(Cl)c4)c23)CC1 [Example 91]
23 | ≤ 0.5 |  | OC[C@@H](O)COc1ccc2c(c1)sc1ncnc(Nc3ccc(OCc4cccc(F)c4)c(Cl)c3)c12 [Example 147, ((2R)-3-{[4-({3-chloro-4-[(3-fluorobenzyl)oxy]phenyl}amino)[1]benzothieno[2,3-d]pyrimidin-7-yl]oxy}propane-1,2-diol hydrochloride]
